Measured values from PubChem BioAssay AID510.

Target: Dehydrogenase/reductase SDR family member 6 (Homo sapiens) (UniProt Q9BUT1)
Assay: SDR family member 6 ligand binding, Tm shift – biophysical, DSF, SYPRO orange, purified human protein (AID 510)
Conditions: Purified DHRS6, DSF thermal shift, at 100 µM, protein 2 µM, buffer 10 mM HEPES, pH 7.5, NaCl 150 mM, stronger effect = higher value

Dehydrogenase/reductase SDR family member 6 (Homo sapiens), sequence (Q9BUT1 whole entry, looked up): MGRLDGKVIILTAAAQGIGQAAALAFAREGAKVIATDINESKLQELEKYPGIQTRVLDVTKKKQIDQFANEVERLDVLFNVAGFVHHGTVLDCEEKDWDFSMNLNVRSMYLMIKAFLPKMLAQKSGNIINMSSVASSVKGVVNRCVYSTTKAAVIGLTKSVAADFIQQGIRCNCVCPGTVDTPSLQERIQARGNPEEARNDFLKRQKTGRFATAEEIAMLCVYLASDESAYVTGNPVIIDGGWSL

SMILES	Tm shift
C=CC1=C(C)/C(=C/c2[nH]c(Cc3[nH]c(/C=C4\NC(=O)C(C)=C4C=C)c(C)c3CCC(=O)O)c(CCC(=O)O)c2C)NC1=O	8.1 Celsius
O=C1C2(Cl)C3(Cl)C4(Cl)C(Cl)(Cl)C5(Cl)C3(Cl)C1(Cl)C5(Cl)C24Cl (stereo not given)	4.7 Celsius

Further lines, results first:

Tm shift	SMILES
2.2 Celsius	O=C(C1CCN(S(=O)(=O)c2cccnc2)CC1)N1CCN(C(c2ccccc2)c2ccc(Cl)cc2)CC1 (stereo not given)
2.2 Celsius	O=c1oc2cc(O)ccc2c2oc3cc(O)ccc3c12
2.4 Celsius	NC(=O)c1ccc[n+](C2OC(COP(=O)(O)OP(=O)(O)OCC3OC(n4cnc5c(N)ncnc54)C(O)C3O)C(O)C2O)c1 (stereo not given)
